# From patent publication US20260297070A1, “CYCLIC [COMPOUND LEFT OUT] WRN INHIBITORS” (Nimbus Wadjet, Inc., priority 2023, published 2026)
# Target: T1, human Werner helicase (WRN-BV08, Uniprot Q14191, amino acids 517-1235 with L1074F point mutation) (Homo sapiens, UniProt Q14191, L1074F)
# T1 construct: Uniprot Q14191, amino acids 517-1235 with L1074F point mutation; TEV-cleavable 8×His (C, cleaved yes); made in house; host or cells: Sf9 insect cells (baculovirus)
# Experiment: WRN (BV08) ADP-Glo Assay
# Format: biochemical
# Conditions: 0.15 nM WRN, 5 μM ATP, 0.1 nM DNA duplex, 15 min preincubation, 60 min at 25° C., pH 7.5, 1% DMSO; read-out: ADP-Glo_hWRN_IC50
# How it was run: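 Untagged WRN (Sf9-expressed, TEV-cleaved) at 0.15 nM was preincubated 15 min at 25 °C with compound, then reacted 60 min at 25 °C with 5 μM ATP and 0.1 nM DNA duplex in Bicine pH 7.5, 1 mM MgCl2. ADP-Glo luminescence gave % inhibition; IC50 by four-parameter fit.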
# T1 sequence (Q14191 with tags, fused parts or gaps L1074F limits assumed): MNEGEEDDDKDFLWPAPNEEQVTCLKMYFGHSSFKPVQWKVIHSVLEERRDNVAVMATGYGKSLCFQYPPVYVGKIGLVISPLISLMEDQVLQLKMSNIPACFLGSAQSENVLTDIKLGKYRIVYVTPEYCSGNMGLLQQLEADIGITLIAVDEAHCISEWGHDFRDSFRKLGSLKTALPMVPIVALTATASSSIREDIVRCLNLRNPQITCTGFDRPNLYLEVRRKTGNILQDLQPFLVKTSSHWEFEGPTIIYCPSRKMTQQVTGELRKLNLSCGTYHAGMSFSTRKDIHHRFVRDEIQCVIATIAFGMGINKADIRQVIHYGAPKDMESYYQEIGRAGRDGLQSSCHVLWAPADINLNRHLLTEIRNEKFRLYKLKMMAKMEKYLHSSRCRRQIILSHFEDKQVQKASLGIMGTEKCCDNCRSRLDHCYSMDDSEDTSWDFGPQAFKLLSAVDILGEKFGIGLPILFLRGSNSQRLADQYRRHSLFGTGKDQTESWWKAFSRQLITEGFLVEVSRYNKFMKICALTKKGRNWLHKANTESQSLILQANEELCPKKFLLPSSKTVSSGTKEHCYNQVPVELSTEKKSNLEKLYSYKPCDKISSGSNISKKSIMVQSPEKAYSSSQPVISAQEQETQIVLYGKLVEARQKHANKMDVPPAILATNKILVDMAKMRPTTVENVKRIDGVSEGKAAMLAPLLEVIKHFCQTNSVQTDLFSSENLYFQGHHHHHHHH
row,SMILES,IC50
1,"COCCN(C)C(=O)C(C(=O)N(Cc1ccnc(C(C)(C)O)c1)[C@@H]1C=CS(=O)(=O)C1)c1ccc(-c2ccc(F)c(F)c2)cc1F (stereo partly drawn) [I-20, N′-[(3R)-1,1-dioxo-2,3-dihydro-1lambda6-thiophen-3-yl]-N′-{[2-(2-hydroxypropan-2-yl)pyridin-4-yl]methyl}-N-(2-methoxyethyl)-N-methyl-2-{3,3′,4′-trifluoro-[1,1′-biphenyl]-4-yl}propanediamide]",< 500 nM
2,"CN(C)C(=O)C(C(=O)N(Cc1ccnc(C(C)(C)O)c1)C1C=CS(=O)(=O)C1)c1ccc(-c2ccc(F)cc2)cc1F (stereo not shown) [I-21, 2-{3,4′-difluoro-[1,1′-biphenyl]-4-yl}-N-(1,1-dioxo-2,3-dihydro-1lambda6-thiophen-3-yl)-N-{[2-(2-hydroxypropan-2-yl)pyridin-4-yl]methyl}-N′,N′-dimethylpropanediamide]",< 500 nM
3,"COc1cc(CN(C(=O)Cc2ccc(S(F)(F)(F)(F)F)cc2F)C2C=CS(=O)(=O)C2)ccn1 (stereo not shown) [I-22, N-(1,1-dioxido-2,3-dihydrothiophen-3-yl)-2-(2-fluoro-4-(pentafluoro-λ^6-sulfaneyl)phenyl)-N-((2-methoxypyridin-4-yl)methyl)acetamide]",< 500 nM
4,"CN(C)C(=O)C(C(=O)N(Cc1nc(C2CC2)cs1)C1C=CS(=O)(=O)C1)c1ccc(-c2ccc(F)cc2)cc1F (stereo not shown) [I-23, N′-[(4-cyclopropyl-1,3-thiazol-2-yl)methyl]-2-{3,4′-difluoro-[1,1′-biphenyl]-4-yl}-N′-(1,1-dioxo-2,3-dihydro-1lambda6-thiophen-3-yl)-N,N-dimethylpropanediamide]",< 500 nM
5,"CN(C)C(=O)C(C(=O)N(Cc1ccnc(C(C)(C)O)c1)C1C=CS(=O)(=O)C1)c1ccc(-c2ccc(F)c(F)c2)cc1F (stereo not shown) [I-24, N′-(1,1-dioxo-2,3-dihydro-1lambda6-thiophen-3-yl)-N′-{[2-(2-hydroxypropan-2-yl)pyridin-4-yl]methyl}-N,N-dimethyl-2-{3,3′,4′-trifluoro-[1,1′-biphenyl]-4-yl}propanediamide]",< 500 nM
6,"CN(C)C(=O)C(C(=O)N(Cc1nc(C2CC2)cs1)C1C=CS(=O)(=O)C1)c1ccc(-c2ccc(F)c(F)c2)cc1F (stereo not shown) [I-25, N′-[(4-cyclopropyl-1,3-thiazol-2-yl)methyl]-N′-(1,1-dioxo-2,3-dihydro-1lambda6-thiophen-3-yl)-N,N-dimethyl-2-{3,3′,4′-trifluoro-[1,1′-biphenyl]-4-yl}propanediamide]",< 500 nM
7,"COc1cc(CN(C(=O)Cn2cc(-c3ccc(F)cc3)cn2)[C@@H]2C=CS(=O)(=O)C2)ccn1 [I-26, N-[(3R)-1,1-dioxo-2,3-dihydro-1lambda6-thiophen-3-yl]-2-[4-(4-fluorophenyl)-1H-pyrazol-1-yl]-N-[(2-methoxypyridin-4-yl)methyl]acetamide]",< 500 nM
8,"COC(C(=O)N(Cc1ccnc(C(C)(C)O)c1)C1C=CS(=O)(=O)C1)c1ccc(-c2ccc(F)cc2)cc1F (stereo not shown) [I-28, 2-{3,4′-difluoro-[1,1′-biphenyl]-4-yl}-N-(1,1-dioxo-2,3-dihydro-1lambda6-thiophen-3-yl)-N-{[2-(2-hydroxypropan-2-yl)pyridin-4-yl]methyl}-2-methoxyacetamide]",< 500 nM
9,"COc1cc(CN(C(=O)Cc2ccc(S(F)(F)(F)(F)F)cc2)C2C=CS(=O)(=O)C2)ccn1 (stereo not shown) [I-29, N-(1,1-dioxo-2,3-dihydro-1lambda6-thiophen-3-yl)-N-[(2-methoxypyridin-4-yl)methyl]-2-[4-(pentafluoro-lambda6-sulfanyl)phenyl]acetamide]",< 500 nM
10,"COCCOC(C(=O)N(Cc1ccnc(C(C)(C)O)c1)[C@@H]1C=CS(=O)(=O)C1)c1ccc(-c2ccc(F)c(F)c2)cc1F (stereo partly drawn) [I-30, N-[(3R)-1,1-dioxo-2,3-dihydro-1lambda6-thiophen-3-yl]-N-{[2-(2-hydroxypropan-2-yl)pyridin-4-yl]methyl}-2-(2-methoxyethoxy)-2-{3,3′,4′-trifluoro-[1,1′-biphenyl]-4-yl}acetamide]",< 500 nM
11,"CC(C)(O)c1cc(CN(C(=O)Cc2ccc(-c3ccc(F)c(F)c3)cc2F)C2C=CS(=O)(=O)C2)ccn1 (stereo not shown) [I-32, N-(1,1-dioxo-2,3-dihydro-1lambda6-thiophen-3-yl)-N-{[2-(2-hydroxypropan-2-yl)pyridin-4-yl]methyl}-2-{3,3′,4′-trifluoro-[1,1′-biphenyl]-4-yl}acetamide]",< 500 nM
12,"CN(C)C(=O)C(C(=O)N(Cc1ccnc(C(C)(C)O)c1)C1C=CS(=O)(=O)C1)c1ccc(-c2ccc(F)cc2)cc1 (stereo not shown) [I-34, N-(1,1-dioxo-2,3-dihydro-1lambda6-thiophen-3-yl)-2-{4′-fluoro-[1,1′-biphenyl]-4-yl}-N-{[2-(2-hydroxypropan-2-yl)pyridin-4-yl]methyl}-N′,N′-dimethylpropanediamide]",< 500 nM
13,"CSC(C(=O)N(Cc1ccnc(C(C)(C)O)c1)C1C=CS(=O)(=O)C1)c1ccc(-c2ccc(F)c(F)c2)cc1F (stereo not shown) [I-36, N-(1,1-dioxido-2,3-dihydrothiophen-3-yl)-N-((2-(2-hydroxypropan-2-yl)pyridin-4-yl)methyl)-2-(methylthio)-2-(3,3′,4′-trifluoro-[1,1′-biphenyl]-4-yl)acetamide]",< 500 nM
14,"COc1cc(CN(C(=O)C(C(=O)N(C)C)c2ccc(-c3ccc(F)c(F)c3)cc2F)C2C=CS(=O)(=O)C2)ccn1 (stereo not shown) [I-37, N′-(1,1-dioxo-2,3-dihydro-1lambda6-thiophen-3-yl)-N′-[(2-methoxypyridin-4-yl)methyl]-N,N-dimethyl-2-{3,3′,4′-trifluoro-[1,1′-biphenyl]-4-yl}propanediamide]",< 500 nM
15,"CC(C)(O)c1cc(CN(C(=O)C(F)(F)c2ccc(-c3ccc(F)c(F)c3)cc2F)[C@@H]2C=CS(=O)(=O)C2)ccn1 [I-38, (R)—N-(1,1-dioxido-2,3-dihydrothiophen-3-yl)-2,2-difluoro-N-((2-(2-hydroxypropan-2-yl)pyridin-4-yl)methyl)-2-(3,3′,4′-trifluoro-[1,1′-biphenyl]-4-yl)acetamide]",< 500 nM
16,"CC(C)(O)c1cc(CN(C(=O)Cc2ccc(S(F)(F)(F)(F)F)cc2)C2C=CS(=O)(=O)C2)ccn1 (stereo not shown) [I-39, N-(1,1-dioxo-2,3-dihydro-1lambda6-thiophen-3-yl)-N-{[2-(2-hydroxypropan-2-yl)pyridin-4-yl]methyl}-2-[4-(pentafluoro-lambda6-sulfanyl)phenyl]acetamide]",< 500 nM
17,"O=C(Cc1ccc(S(F)(F)(F)(F)F)cc1)N(Cc1nc(C2CC2)cs1)C1C=CS(=O)(=O)C1 (stereo not shown) [I-41, N-[(4-cyclopropyl-1,3-thiazol-2-yl)methyl]-N-(1,1-dioxo-2,3-dihydro-1lambda6-thiophen-3-yl)-2-[4-(pentafluoro-lambda6-sulfanyl)phenyl]acetamide]",< 500 nM
18,"CC(C)(O)c1cc(CN(C(=O)Cn2cc(-c3ccc(F)cc3)cn2)C2C=CS(=O)(=O)C2)ccn1 (stereo not shown) [I-42, N-(1,1-dioxo-2,3-dihydro-1lambda6-thiophen-3-yl)-2-[4-(4-fluorophenyl)-1H-pyrazol-1-yl]-N-{[2-(2-hydroxypropan-2-yl)pyridin-4-yl]methyl}acetamide]",< 500 nM
19,"CC(C)(O)c1cc(CN(C(=O)Cn2cc(-c3ccccc3)cn2)[C@@H]2C=CS(=O)(=O)C2)ccn1 [I-43, N-[(3R)-1,1-dioxo-2,3-dihydro-1lambda6-thiophen-3-yl]-N-{[2-(2-hydroxypropan-2-yl)pyridin-4-yl]methyl}-2-(4-phenyl-1H-pyrazol-1-yl)acetamide]",< 500 nM
20,"CC(C)(O)c1cc(CN(C(=O)Cc2ccc(S(F)(F)(F)(F)F)cc2F)C2C=CS(=O)(=O)C2)ccn1 (stereo not shown) [I-44, N-(1,1-dioxo-2,3-dihydro-1lambda6-thiophen-3-yl)-2-[2-fluoro-4-(pentafluoro-lambda6-sulfanyl)phenyl]-N-{[2-(2-hydroxypropan-2-yl)pyridin-4-yl]methyl}acetamide]",< 500 nM
21,"COc1cc(CN(C(=O)C(OC)c2ccc(-c3ccc(F)c(F)c3)cc2F)C2C=CS(=O)(=O)C2)ccn1 (stereo not shown) [I-45, N-(1,1-dioxo-2,3-dihydro-1lambda6-thiophen-3-yl)-2-methoxy-N-[(2-methoxypyridin-4-yl)methyl]-2-{3,3′,4′-trifluoro-[1,1′-biphenyl]-4-yl}acetamide]",< 500 nM
22,"COc1cc(CN(C(=O)C(C(=O)N(C)C)c2ccc(-c3ccc(F)cc3)cc2F)C2C=CS(=O)(=O)C2)ccn1 (stereo not shown) [I-46, 2-{3,4′-difluoro-[1,1′-biphenyl]-4-yl}-N-(1,1-dioxo-2,3-dihydro-1lambda6-thiophen-3-yl)-N-[(2-methoxypyridin-4-yl)methyl]-N′,N′-dimethylpropanediamide]",< 500 nM
23,"COC(C(=O)N(Cc1nc(C2CC2)cs1)C1C=CS(=O)(=O)C1)c1ccc(-c2ccc(F)c(F)c2)cc1F (stereo not shown) [I-47, N-[(4-cyclopropyl-1,3-thiazol-2-yl)methyl]-N-(1,1-dioxo-2,3-dihydro-1lambda6-thiophen-3-yl)-2-methoxy-2-{3,3′,4′-trifluoro-[1,1′-biphenyl]-4-yl}acetamide]",< 500 nM
24,"O=C(C(c1ccc(-c2ccc(F)c(F)c2)cc1F)n1cccn1)N(Cc1ccncc1)C1C=CS(=O)(=O)C1 (stereo not shown) [I-48, N-(1,1-dioxido-2,3-dihydrothiophen-3-yl)-2-(1H-pyrazol-1-yl)-N-(pyridin-4-ylmethyl)-2-(3,3′,4′-trifluoro-[1,1′-biphenyl]-4-yl)acetamide]",< 500 nM
25,"O=C(Cn1cc(-c2ccc(F)cc2)cn1)N(Cc1nc(C2CC2)cs1)C1C=CS(=O)(=O)C1 (stereo not shown) [I-49, N-[(4-cyclopropyl-1,3-thiazol-2-yl)methyl]-N-(1,1-dioxo-2,3-dihydro-1lambda6-thiophen-3-yl)-2-[4-(4-fluorophenyl)-1H-pyrazol-1-yl]acetamide]",< 500 nM
